Reference: patent US20100056508A1, “AMINE DERIVATIVES AND THEIR USE IN BETA-2-ADRENORECEPTOR MEDIATED DISEASES” (ASTRAZENECA AB, priority 2006, published 2010)

Legend:
[1] = molecular target: T1, recombinant human α1D receptor (Homo sapiens, UniProt P25100); test: Adrenergic α1D selectivity assay, [3H]-prazosin binding to membranes; settings: inhibition of [3H]-prazosin binding, HEK cell membranes, read-out: α1 bind pIC50 (converted)
T1 construct: expressed in transfected cells; host or cells: human embryonic kidney 293 cells (HEK93 [sic]), membranes
T1 sequence (P25100 1-572): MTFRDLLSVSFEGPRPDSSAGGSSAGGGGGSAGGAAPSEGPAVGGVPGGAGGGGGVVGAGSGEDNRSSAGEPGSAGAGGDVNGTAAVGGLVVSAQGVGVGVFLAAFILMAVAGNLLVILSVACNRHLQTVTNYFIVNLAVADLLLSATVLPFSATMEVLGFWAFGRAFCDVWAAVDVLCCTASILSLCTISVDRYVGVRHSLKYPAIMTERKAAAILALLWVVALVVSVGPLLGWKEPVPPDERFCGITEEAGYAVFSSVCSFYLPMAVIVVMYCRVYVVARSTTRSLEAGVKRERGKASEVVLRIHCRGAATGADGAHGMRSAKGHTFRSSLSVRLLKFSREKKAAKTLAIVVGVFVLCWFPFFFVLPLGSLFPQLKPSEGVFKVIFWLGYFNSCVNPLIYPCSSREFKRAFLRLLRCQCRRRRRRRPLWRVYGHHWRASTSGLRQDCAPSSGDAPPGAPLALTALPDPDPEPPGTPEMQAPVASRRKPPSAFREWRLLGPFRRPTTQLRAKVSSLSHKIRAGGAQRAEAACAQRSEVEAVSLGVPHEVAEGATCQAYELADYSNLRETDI
Procedure: Membranes were prepared from human embryonic kidney 293 ([…]) cells expressing recombinant human α1D receptor. These were diluted in Assay Buffer (50 mM HEPES, 1 mM EDTA, pH 7.4) to provide a final concentration of membranes that gave a clear window between maximum and minimum specific binding.
Assays were performed in U-bottomed 96-well polypropylene plates. 10 μL [^3H]-prazosin (0.3 nM final concentration) and […] of test compound (10× final concentration) were added to each test well. For each assay plate 8 replicates were obtained for [^3H]-prazosin binding in the presence of 10 μL vehicle (10% (v/v) DMSO in Assay Buffer; defining maximum binding) or 10 μL BMY7378 (10 μM final concentration; defining non-specific binding (NSB)). Membranes were then added to achieve a final volume of 100 μL. The plates were incubated for 2 hours at room temperature and then filtered onto PEI coated GF/B filter plates, pre-soaked for 1 hour in Assay Buffer, using a 96-well plate Tomtec cell harvester. Five washes with 250 μL wash buffer (50 mM HEPES, 1 mM EDTA, pH 7.4) were performed at 4° C. to remove unbound radioactivity. The plates were dried then sealed from underneath using Packard plate sealers and MicroScint-O (50 μL) was added to each well. The plates were sealed (TopSeal A) and filter-bound radioactivity was measured with a scintillation counter (TopCount, Packard BioScience) using a 3-minute counting protocol.
Total specific binding (B0) was determined by subtracting the mean NSB from the mean maximum binding. NSB values were also subtracted from values from all other wells. […] Data was fitted to a four parameter logistic equation to determine the compound potency, which was expressed as pIC50 (negative log molar concentration inducing 50% inhibition of [^3H]-prazosin binding).

Adrenergic β2 = molecular target: T2, Adrenergic β2 (Homo sapiens, UniProt P07550); test: Adrenergic β2 mediated cAMP production in H292 cells (AlphaScreen cAMP detection); type: cell-based; parameters: key to β2 Int Act: fraction of formoterol maximum activity (formoterol = 1); settings: for β2 Int Act: Intrinsic Activity as a fraction relative to the maximum activity determined for formoterol; for EC50: cAMP production, 60 minutes at room temperature, 300 μM rolipram, read-out: β2 pEC50 (converted)
T2 construct: Adherent H292 cells were removed from tissue culture flasks; endogenous in cells; host or cells: H292 cells
T2 sequence (P07550 whole entry): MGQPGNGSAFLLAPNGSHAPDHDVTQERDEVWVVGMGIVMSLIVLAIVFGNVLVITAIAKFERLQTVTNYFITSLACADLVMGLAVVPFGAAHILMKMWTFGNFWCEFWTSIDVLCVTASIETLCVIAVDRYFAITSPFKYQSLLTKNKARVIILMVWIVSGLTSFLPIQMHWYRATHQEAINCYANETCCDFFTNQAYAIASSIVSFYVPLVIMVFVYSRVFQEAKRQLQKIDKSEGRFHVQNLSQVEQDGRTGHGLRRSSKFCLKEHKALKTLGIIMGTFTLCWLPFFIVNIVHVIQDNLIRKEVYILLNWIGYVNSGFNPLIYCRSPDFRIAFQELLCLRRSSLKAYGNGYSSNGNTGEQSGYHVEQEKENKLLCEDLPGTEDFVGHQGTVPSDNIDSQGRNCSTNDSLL
Procedure: Adrenergic β2 Mediated cAMP Production
H292 cells were grown in 225 cm2 flasks incubator at 37° C., 5% CO2 in RPMI medium containing, 10% (v/v) FBS (foetal bovine serum) and 2 mM L-glutamine.
Adherent H292 cells were removed from tissue culture flasks by treatment with Accutase™ cell detachment solution for 15 minutes. Flasks were incubated for 15 minutes in a humidified incubator at 37° C., 5% CO2. Detached cells were re-suspended in RPMI media (containing 10% (v/v) FBS and 2 mM L-glutamine) at 1×10^6 cells per mL. 10000 cells in 100 μL were added to each well of a tissue-culture-treated 96-well plate and the cells incubated overnight in a humidified incubator at 37° C., 5% CO2. The culture media was removed and cells were washed twice with 100 μL assay buffer and replaced with 50 μL assay buffer (HBSS solution containing 10 mM HEPES pH7.4 and 5 mM glucose). Cells were rested at room temperature for 20 minutes after which time 25 μL of rolipram (1.2 mM made up in assay buffer containing 2.4% (v/v) dimethylsulphoxide) was added. Cells were incubated with rolipram for 10 minutes after which time test compounds were added and the cells were incubated for 60 minutes at room temperature. The final rolipram concentration in the assay was 300 μM and final vehicle concentration was 1.6% (v/v) dimethylsulphoxide. The reaction was stopped by removing supernatants, washing once with 100 μL assay buffer and replacing with 50 μL lysis buffer. The cell monolayer was frozen at −80° C. for 30 minutes (or overnight).
AlphaScreen™ cAMP Detection
The concentration of cAMP (cyclic adenosine monophosphate) in the cell lysate was determined using AlphaScreen™ methodology. The frozen cell plate was thawed for 20 minutes on a plate shaker then 10 μL of the cell lysate was transferred to a 96-well white plate. 40 μL of mixed AlphaScreen™ detection beads pre-incubated with biotinylated cAMP, was added to each well and the plate incubated at room temperature for 10 hours in the dark. The AlphaScreen™ signal was measured using an EnVision spectrophotometer (Perkin-Elmer Inc.) with the recommended manufacturer's settings. cAMP concentrations were determined by reference to a calibration curve determined in the same experiment using standard cAMP concentrations. Concentration response curves for agonists were constructed and data was fitted to a four parameter logistic equation to determine both the pEC50 and Intrinsic Activity. Intrinsic Activity was expressed as a fraction relative to the maximum activity determined for formoterol in each experiment.

IC50 [1] [nM]	β2 Int Act (Adrenergic β2)	EC50 (Adrenergic β2) [nM]	Structure (SMILES)
794	0.93	12.6	O=C(CCOCCc1ccccc1)N(CCNCCc1ccc(O)c2[nH]c(=O)ccc12)C1CCCCC1 [Example 2, N-Cyclohexyl-N-(2-(2-(8-hydroxy-2-oxo-1,2-dihydroquinolin-5-yl)ethylamino)ethyl)-3-phenethoxypropanamide]
79.4	0.82	7.94	O=C(CCNCCc1cccc(Cl)c1)N(CCNCCc1ccc(O)c2[nH]c(=O)ccc12)C1CCCCCC1 [Example 3, 3-(3-Chlorophenethylamino)-N-cycloheptyl-N-(2-(2-(8-hydroxy-2-oxo-1,2-dihydroquinolin-5-yl)ethylamino)ethyl)propanamide bis(trifluoroacetate)]
79.4	0.79	20	O=C(CCNCCc1ccc(Cl)cc1)N(CCNCCc1ccc(O)c2[nH]c(=O)ccc12)C1CCCCCC1 [Example 4, 3-(4-Chlorophenethylamino)-N-cycloheptyl-N-(2-(2-(8-hydroxy-2-oxo-1,2-dihydroquinolin-5-yl)ethylamino)ethyl)propanamide bis(trifluoroacetate)]
316	0.65	79.4	CCOc1cccc(CCNCCC(=O)N(CCNCCc2ccc(O)c3[nH]c(=O)ccc23)C2CCCCCC2)c1 [Example 11, N-Cycloheptyl-3-(3-ethoxyphenethylamino)-N-(2-(2-(8-hydroxy-2-oxo-1,2-dihydroquinolin-5-yl)ethylamino)ethyl)propanamide bis(trifluoroacetate)]
79.4	0.86	7.94	O=C(CCNCCc1cccc(Cl)c1)N(CCNCCc1ccc(O)c2[nH]c(=O)ccc12)C1CCCCC1 [Example 13, 3-(3-Chlorophenethylamino)-N-cyclohexyl-N-(2-(2-(8-hydroxy-2-oxo-1,2-dihydroquinolin-5-yl)ethylamino)ethyl)propanamide bis(trifluoroacetate)]
501	0.88	20	O=C(CCNCCc1ccc(Cl)cc1)N(CCNCCc1ccc(O)c2[nH]c(=O)ccc12)C1CCCCC1 [Example 14, 3-(4-Chlorophenethylamino)-N-cyclohexyl-N-(2-(2-(8-hydroxy-2-oxo-1,2-dihydroquinolin-5-yl)ethylamino)ethyl)propanamide bis(trifluoroacetate)]
501	0.88	7.94	O=C(CCNCCc1cc(F)cc(F)c1)N(CCNCCc1ccc(O)c2[nH]c(=O)ccc12)C1CCCCC1 [Example 15, N-Cyclohexyl-3-(3,5-difluorophenethylamino)-N-(2-(2-(8-hydroxy-2-oxo-1,2-dihydroquinolin-5-yl)ethylamino)ethyl)propanamide bis(trifluoroacetate)]
251	0.93	3.98	O=C(CCNCCc1cc(F)ccc1F)N(CCNCCc1ccc(O)c2[nH]c(=O)ccc12)C1CCCCC1 [Example 17, N-Cyclohexyl-3-(2,5-difluorophenethylamino)-N-(2-(2-(8-hydroxy-2-oxo-1,2-dihydroquinolin-5-yl)ethylamino)ethyl)propanamide bis(trifluoroacetate)]
398	0.95	12.6	O=C(CCNCCc1cccc(F)c1F)N(CCNCCc1ccc(O)c2[nH]c(=O)ccc12)C1CCCCC1 [Example 18, N-Cyclohexyl-3-(3-difluorophenethylamino)-N-(2-(2-(8-hydroxy-2-oxo-1,2-dihydroquinolin-5-yl)ethylamino)ethyl)propanamide bis(trifluoroacetate)]
79.4	0.83	31.6	O=CNc1cc(CCNCCN(C(=O)CCNCCc2ccccc2)C2CCCCC2)ccc1O [Example 21, N-Cyclohexyl-N-(2-(3-formamido-4-hydroxyphenethylamino)ethyl)-3-(phenethylamino)propanamide]
200	1.01	20	O=C(CCNCCc1ccccc1)N(CCNCCc1ccc(O)c(O)c1)C1CCCCC1 [Example 22, N-Cyclohexyl-N-(2-(3,4-dihydroxyphenethylamino)ethyl)-3-(phenethylamino)propanamide bis(trifluoroacetate)]
126	0.79	0.631	O=C1COc2c(CCNCCN(C(=O)CCNCCc3ccccc3)C3CCCCC3)ccc(O)c2N1 [Example 23, N-Cyclohexyl-N-(2-(2-(5-hydroxy-3-oxo-3,4-dihydro-2H-benzo[b][1,4]oxazin-8-yl)ethylamino)ethyl)-3-(phenethylamino)propanamide bis(trifluoroacetate)]
50.1	0.85	1	O=C1COc2c(CCNCCN(C(=O)CCNCCc3ccccc3)C3CCCCCC3)ccc(O)c2N1 [Example 24, N-Cycloheptyl-N-(2-(2-(5-hydroxy-3-oxo-3,4-dihydro-2H-benzo[b][1,4]oxazin-8-yl)ethylamino)ethyl)-3-(phenethylamino)propanamide bis(trifluoroacetate)]
63.1	0.9	1	CCCC[C@@H](C)N(CCNCCc1ccc(O)c2c1OCC(=O)N2)C(=O)CCNCCc1ccccc1 [Example 25, (R)—N-(Hexan-2-yl)-N-(2-(2-(5-hydroxy-3-oxo-3,4-dihydro-2H-benzo[b][1,4]oxazin-8-yl)ethylamino)ethyl)-3-(phenethylamino)propanamide bis(trifluoroacetate)]
79.4	0.74	2.51	O=C1COc2c(CCNCCN(C(=O)CCNCCc3ccc(Cl)c(Cl)c3)C3CCCCCC3)ccc(O)c2N1 [Example 26, N-Cycloheptyl-3-(3,4-dichlorophenethylamino)-N-(2-(2-(5-hydroxy-3-oxo-3,4-dihydro-2H-benzo[b][1,4]oxazin-8-yl)ethylamino)ethyl)propanamide bis(trifluoroacetate)]
